Counter-ions that a name gives are not always drawn.
Tests used:
[1] = molecular target: T1, PIM1 serine/threonine kinase (Homo sapiens, UniProt P11309); experiment: PIM1 serine/threonine kinase inhibitory effect; type: biochemical; settings: PIM1 serine/threonine kinase activity; ATP 40 μM; 30° C., 30 minutes
T1 construct: purchased Carna Bioscience, Inc
In short: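 Recombinant PIM1 (0.15 μg/ml final) with 0.5 μM biotinylated substrate and 40 μM ATP in pH 7.0 HEPES/MgCl2 buffer, 30 min at 30° C. Compound range was 0.01–10000 nM final, n=2. HTRF detection with streptavidin-XL665 and anti-phospho antibody-cryptate, 1 h; IC50 from non-linear regression of the 665/620 ratio.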

[2] = molecular target: PIM1 transgenic cells (Ba/F3) (Homo sapiens, UniProt P11309); experiment: Proliferation inhibitory effect on PIM1 transgenic cells; type: cell-based, mouse; settings: proliferation inhibition, 72 hours, Cell Counting Kit-8, read-out: PIM1 IC50
Chain of PIM1 transgenic cells (Ba/F3) (P11309 whole entry, stated change not applied): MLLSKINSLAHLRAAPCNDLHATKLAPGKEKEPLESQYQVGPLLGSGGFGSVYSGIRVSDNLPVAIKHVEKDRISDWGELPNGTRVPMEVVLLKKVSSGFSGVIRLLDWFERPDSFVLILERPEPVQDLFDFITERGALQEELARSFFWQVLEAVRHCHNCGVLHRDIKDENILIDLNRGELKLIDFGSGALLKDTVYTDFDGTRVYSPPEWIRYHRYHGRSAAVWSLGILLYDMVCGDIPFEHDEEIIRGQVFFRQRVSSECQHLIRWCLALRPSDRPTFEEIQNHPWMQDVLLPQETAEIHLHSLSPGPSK
In short: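 Mouse Ba/F3 pro-B cells were retrovirally transduced with human PIM1 so that their proliferation depends on PIM1. Cells were treated with compound at 1–10000 nM final for 72 h, then read by CCK-8 (OD450−OD650). Inhibition was set against DMSO (0%) and no-cell blank (100%), and IC50 was obtained by two-parameter logistic regression.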

T1 sequence (P11309 whole entry): as the sequence (P11309 whole entry, stated change not applied) above

SMILES | IC50 [1] [nM] | GI50 [2] [nM]
C[C@@H]1CNCC[C@@H]1[C@H](C)N1CCC(=O)c2c(F)cc(-c3n[nH]c(=O)o3)cc21 [Example 245, 5-fluoro-1-{(1S)-1-[(3S,4S)-3-methylpiperidin-4-yl]ethyl}-7-(5-oxo-4,5-dihydro-1,3,4-oxadiazol-2-yl)-2,3-dihydroquinolin-4(1H)-one hydrochloride] | 4.2 | 3200
C[C@H](Nc1cc(Cl)cc(-c2n[nH]c(=O)o2)c1)C1CCNCC1 [Example 105, 5-(3-chloro-5-{[(1S)-1-(piperidin-4-yl)ethyl]amino}phenyl)-1,3,4-oxadiazol-2(3H)-one dihydrochloride] | 12 | 550
O=c1[nH]nc(-c2cc(Br)c3cnn(CC4CCNCC4)c3c2)o1 [Example 124, 5-{4-bromo-1-[(piperidin-4-yl)methyl]-1H-indazol-6-yl}-1,3,4-oxadiazol-2(3H)-one hydrochloride] | 26 | 4100
C[C@H](Nc1cc(-c2n[nH]c(=O)o2)ccc1C(F)(F)F)[C@H]1CC[C@@H](N)C1 [Example 199, 5-[3-({(1S)-1-[(1S,3R)-3-aminocyclopentyl]ethyl}amino)-4-(trifluoromethyl)phenyl]-1,3,4-oxadiazol-2(3H)-one hydrochloride] | 3.9 | 110
C[C@H]1CN([C@@H](C)C2CCNCC2)c2cc(-c3n[nH]c(=O)o3)cc(F)c2O1 [Example 251, 5-{(2S)-8-fluoro-2-methyl-4-[(1S)-1-(piperidin-4-yl)ethyl]-3,4-dihydro-2H-1,4-benzoxazin-6-yl}-1,3,4-oxadiazol-2(3H)-one] | 12 | 260
O=c1[nH]nc(-c2ccc(Cl)c(NC3CCNCC3)c2)o1 [Example 31, 5-{4-chloro-3-[(piperidin-4-yl)amino]phenyl}-1,3,4-oxadiazol-2(3H)-one hydrochloride] | 70 | 3300
O=c1[nH]nc(-c2ccc(Cl)c(NC[C@@H]3CCNC3)c2)o1 [Example 49, 5-[4-chloro-3-({[(3R)-pyrrolidin-3-yl]methyl}amino)phenyl]-1,3,4-oxadiazol-2(3H)-one hydrochloride] | 18 | 7600
CC(Oc1cc(-c2n[nH]c(=O)o2)ccc1Br)C1CCNCC1 (stereo not drawn) [Example 236] | 8.7 | 180
O=c1[nH]nc(-c2ccc(C(F)(F)F)c(NC[C@@H]3CCCNC3)c2)o1 [Example 54, 5-[3-({[(3R)-piperidin-3-yl]methyl}amino)-4-(trifluoromethyl)phenyl]-1,3,4-oxadiazol-2(3H)-one hydrochloride] | 13 | 1200
NCCC1CCCN(c2cc(-c3n[nH]c(=O)o3)ccc2C(F)(F)F)C1 (stereo not drawn) [Example 11, 5-{3-[3-(2-aminoethyl)piperidin-1-yl]-4-(trifluoromethyl)phenyl}-1,3,4-oxadiazol-2(3H)-one hydrochloride] | 13 | 330
C[C@H](Nc1cc(-c2n[nH]c(=O)o2)cc(Cl)c1Cl)[C@H]1CC[C@H](N)CC1 [Example 174, 5-[3-({(1S)-1-[(1r,4S)-4-aminocyclohexyl]ethyl}amino)-4,5-dichlorophenyl]-1,3,4-oxadiazol-2(3H)-one hydrochloride] | 1.6 | 18
N[C@H]1CCCN(CCNc2cc(-c3n[nH]c(=O)o3)ccc2C(F)(F)F)C1 [Example 73, 5-[3-({2-[(3S)-3-aminopiperidin-1-yl]ethyl}amino)-4-(trifluoromethyl)phenyl]-1,3,4-oxadiazol-2(3H)-one dihydrochloride] | 21 | 570
N[C@H]1CC[C@H](CN2CCCc3ccc(-c4n[nH]c(=O)o4)cc32)CC1 [Example 244, 5-(1-{[(1r,4r)-4-aminocyclohexyl]methyl}-1,2,3,4-tetrahydroquinolin-7-yl)-1,3,4-oxadiazol-2(3H)-one] | 11 | 140
C[C@H](Nc1cc(-c2n[nH]c(=O)o2)cc(Cl)c1Cl)C1CCNCC1 [Example 79, 5-(3,4-dichloro-5-{[(1S)-1-(piperidin-4-yl)ethyl]amino}phenyl)-1,3,4-oxadiazol-2(3H)-one dihydrochloride] | 0.8 | 53
C[C@H](Nc1cc(-c2n[nH]c(=O)o2)c(Cl)cc1Cl)C1CCNCC1 [Example 96, 5-(2,4-dichloro-5-{[(1S)-1-(piperidin-4-yl)ethyl]amino}phenyl)-1,3,4-oxadiazol-2(3H)-one hydrochloride] | 6.2 | 380
CC1(CCNc2cc(-c3n[nH]c(=O)o3)ccc2C(F)(F)F)CCNCC1 [Example 70, 5-[3-{[2-(4-methylpiperidin-4-yl)ethyl]amino}-4-(trifluoromethyl)phenyl]-1,3,4-oxadiazol-2(3H)-one hydrochloride] | 4.2 | 1700
O=c1[nH]nc(-c2ccc(C(F)(F)F)c(N[C@@H](CF)C3(F)CCNCC3)c2)o1 [Example 209, 5-[3-{[(1S)-2-fluoro-1-(4-fluoropiperidin-4-yl)ethyl]amino}-4-(trifluoromethyl)phenyl]-1,3,4-oxadiazol-2(3H)-one] | 5.7 | 100
C[C@H](Nc1cc(-c2n[nH]c(=O)o2)ccc1C(F)(F)F)[C@H]1[C@@H]2CC[C@H]1CNC2 [Example 156, 5-[3-({(1S)-1-[(1R,5S,8s)-3-azabicyclo[3.2.1]octan-8-yl]ethyl}amino)-4-(trifluoromethyl)phenyl]-1,3,4-oxadiazol-2(3H)-one hydrochloride] | 14 | 160
O=c1[nH]nc(-c2ccc(C(F)(F)F)c(NCC3CCNCC3)c2)o1 [Example 48, 5-[3-{[(piperidin-4-yl)methyl]amino}-4-(trifluoromethyl)phenyl]-1,3,4-oxadiazol-2(3H)-one hydrochloride] | 4.4 | 1200
C[C@H](Nc1cc(-c2n[nH]c(=O)o2)cc(N)c1Cl)C1CCNCC1 [Example 92, 5-(3-amino-4-chloro-5-{[(1S)-1-(piperidin-4-yl)ethyl]amino}phenyl)-1,3,4-oxadiazol-2(3H)-one dihydrochloride] | 2.6 | 280
O=c1[nH]nc(-c2ccc(Cl)c(NCC3CCNCC3)c2)o1 [Example 47, 5-(4-chloro-3-{[(piperidin-4-yl)methyl]amino}phenyl)-1,3,4-oxadiazol-2(3H)-one hydrochloride] | 7.6 | 820
CN[C@H]1CC[C@H]([C@H](C)Nc2cc(-c3n[nH]c(=O)o3)ccc2C(F)(F)F)CC1 [Example 189, 5-[3-({(1S)-1-[(1r,4S)-4-(methylamino)cyclohexyl]ethyl}amino)-4-(trifluoromethyl)phenyl]-1,3,4-oxadiazol-2(3H)-one hydrochloride] | 2.2 | 44
C[C@H](Nc1c(F)c(-c2n[nH]c(=O)o2)cc(Cl)c1Cl)C1CCNCC1 [Example 87, 5-(4,5-dichloro-2-fluoro-3-{[(1S)-1-(piperidin-4-yl)ethyl]amino}phenyl)-1,3,4-oxadiazol-2(3H)-one hydrochloride] | 1.2 | 64
N[C@H]1CC[C@H](COc2cc(-c3n[nH]c(=O)o3)ccc2Br)CC1 [Example 238, 5-(3-{[(1r,4r)-4-aminocyclohexyl]methoxy}-4-bromophenyl)-1,3,4-oxadiazol-2(3H)-one] | 2.5 | 87

Reference: patent US20220024921A1, “1,3,4-OXADIAZOLONE COMPOUND AND PHARMACEUTICAL” (NIPPON SHINYAKU CO., LTD., priority 2018, published 2022)
